From PMC2263054, “Functional evolution of the vitamin D and pregnane X receptors” (BMC Evolutionary Biology, 2007)
Counter-ions that a name gives are not always drawn. Like-named read-outs stand apart in the source and are kept apart here.

Key:
Format in all cases: cell-based
Zebrafish VDR = target: T1, Zebrafish VDR (Danio rerio, UniProt Q9PTN2); assay: luciferase reporter transactivation assay in HepG2-NTCP cells, GAL4/zfVDR LBD chimera with tk-UAS-Luc
T1 sequence (Q9PTN2 121-453): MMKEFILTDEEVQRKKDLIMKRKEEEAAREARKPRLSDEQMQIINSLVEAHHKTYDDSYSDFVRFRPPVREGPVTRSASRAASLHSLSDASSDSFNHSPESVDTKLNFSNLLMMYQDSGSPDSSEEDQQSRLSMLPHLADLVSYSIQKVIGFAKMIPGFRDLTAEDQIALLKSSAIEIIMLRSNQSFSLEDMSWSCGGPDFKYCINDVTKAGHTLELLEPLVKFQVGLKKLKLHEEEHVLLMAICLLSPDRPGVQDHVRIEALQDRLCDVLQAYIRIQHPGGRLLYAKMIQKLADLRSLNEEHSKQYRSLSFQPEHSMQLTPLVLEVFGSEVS

Sea lamprey VDR = target: T2, Sea lamprey VDR (Petromyzon marinus, UniProt Q7ZZY9)
T2 sequence (Q7ZZY9 92-406): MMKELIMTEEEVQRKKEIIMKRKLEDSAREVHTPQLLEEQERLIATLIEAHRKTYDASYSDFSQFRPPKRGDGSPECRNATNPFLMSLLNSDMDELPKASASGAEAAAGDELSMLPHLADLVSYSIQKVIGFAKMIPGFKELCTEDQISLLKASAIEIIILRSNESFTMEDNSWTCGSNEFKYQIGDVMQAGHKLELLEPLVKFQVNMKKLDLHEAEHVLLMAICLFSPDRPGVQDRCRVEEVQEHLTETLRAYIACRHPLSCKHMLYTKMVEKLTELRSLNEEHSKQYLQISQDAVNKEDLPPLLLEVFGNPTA

Xenopus laevis VDR = target: T3, Xenopus laevis VDR (Xenopus laevis, UniProt O13124); assay: luciferase reporter transactivation assay in HepG2-NTCP cells, GAL4/xlVDR LBD chimera with tk-UAS-Luc
T3 sequence (O13124 90-422): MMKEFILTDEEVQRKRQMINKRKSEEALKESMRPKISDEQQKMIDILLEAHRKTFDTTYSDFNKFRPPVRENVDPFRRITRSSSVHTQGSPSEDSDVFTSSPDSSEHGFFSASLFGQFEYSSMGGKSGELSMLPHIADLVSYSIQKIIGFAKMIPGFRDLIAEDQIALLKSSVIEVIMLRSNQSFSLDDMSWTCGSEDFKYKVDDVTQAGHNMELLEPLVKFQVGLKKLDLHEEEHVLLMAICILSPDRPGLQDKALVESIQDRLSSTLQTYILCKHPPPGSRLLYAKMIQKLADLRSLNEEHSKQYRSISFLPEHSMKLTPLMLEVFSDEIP

[1] = screening for activators, at least three concentrations of each drug
[2] = screening for activators, at least three concentrations of each drug, listed as 17β-estradiol

Row | Molecule | Effect on zebrafish VDR (Zebrafish VDR; [1]) | Effect on Xenopus laevis VDR (Xenopus laevis VDR; [1]) | Effect on sea lamprey VDR (Sea lamprey VDR; [1]) | also measured
1 | C[C@H](CCC(=O)O)[C@H]1CC[C@H]2[C@@H]3C[C@@H](O)[C@@H]4C[C@H](O)CC[C@]4(C)[C@H]3CC[C@]12C [5b-Cholanic acid-3a,6b-diol] | No effect | No effect | – | Effect on sea lamprey VDR (Sea lamprey VDR): No effect
2 | CCc1ccc(CCOc2ccc(CC3SC(=O)NC3=O)cc2)nc1 (stereo not drawn) [Pioglitazone HCl] | No effect | No effect | No effect | –
3 | COc1c(O)ccc2c1CC[C@@H]1[C@@H]2CC[C@]2(C)C(=O)CC[C@@H]12 [4-Methoxyestrone] | – | – | – | Effect on zebrafish VDR (Zebrafish VDR): No effect; Effect on sea lamprey VDR (Sea lamprey VDR): No effect; Effect on Xenopus laevis VDR (Xenopus laevis VDR): No effect
4 | CC(C)(Oc1ccc(Cl)cc1)C(=O)O [Clofibric acid] | No effect | No effect | No effect | –
5 | C[C@H](CCC(=O)O)[C@H]1CC[C@H]2[C@@H]3CC[C@@H]4C[C@H](O)CC[C@]4(C)[C@H]3C[C@H](O)[C@]12C [Deoxycholic acid] | No effect | No effect | No effect | –
6 | CC(CO)CCC[C@@H](C)[C@H]1[C@H](O)C[C@H]2[C@@H]3[C@H](O)C[C@H]4C[C@H](O)CC[C@]4(C)[C@H]3CC[C@]12C (stereo partly drawn) [5a-Cholestan-3a,7a,16a,27-tetrol] | No effect | No effect | No effect | –
7 | C=CC[C@@H]1[C@H](O)CC[C@@]2(C)[C@H]1CC[C@@H]1[C@@H]2CC[C@]2(C)[C@@H]([C@H](C)CCCC(C)C)CC[C@@H]12 [LY 295427] | No effect | No effect | No effect | –
8 | CCC[C@@H](C)[C@H]1CC[C@H]2[C@@H]3[C@H](O)C[C@@H]4C[C@H](O)CC[C@]4(C)[C@H]3C[C@H](O)[C@]12C [5b-Cholan-3a,7a,12a-triol] | No effect | No effect | No effect | –
9 | O=C(Nc1ccccc1)c1cc([N+](=O)[O-])ccc1Cl [GW 9662] | No effect | No effect | No effect | –
10 | CC(=O)[C@H]1CC[C@H]2[C@@H]3CC[C@H]4C[C@H](O)CC[C@]4(C)[C@H]3CC[C@]12C [5a-pregnan-3a-ol-20-one] | No effect | No effect | No effect | –
11 | CC(C)[C@@H](O)CC[C@@H](C)[C@H]1CC[C@H]2[C@@H]3CC=C4C[C@@H](O)CC[C@]4(C)[C@H]3CC[C@]12C [24(S)-Hydroxycholesterol] | No effect | No effect | No effect | –
12 | CCCCCC=CCC=CCC=CCC=CCCCC(=O)O [5,8,11,14-Eicosatetranoic acid] | No effect | No effect | No effect | –
13 | CC1(COc2ccc(CC3SC(=O)NC3=O)cc2)CCCCC1 (stereo not drawn) [Ciglitazone] | No effect | No effect | No effect | –
14 | C[C@@]12CCC[C@H]1[C@@H]1CC[C@@H]3C[C@@H](O)CC[C@]3(C)[C@H]1CC2 [5b-Androstan-3b-ol] | No effect | No effect | No effect | –
15 | C[C@H](CCC(=O)O)[C@H]1CC[C@H]2[C@@H]3[C@H](O)C[C@@H]4C[C@H](O)CC[C@]4(C)[C@H]3CC[C@]12C [Chenodeoxycholic acid] | No effect | No effect | – | Effect on sea lamprey VDR (Sea lamprey VDR): No effect
16 | C[C@]12CCC(=O)C[C@@H]1CC[C@@H]1[C@@H]2CC[C@]2(C)[C@@H](O)CC[C@@H]12 [Dihydrotestosterone] | No effect | No effect | No effect | –
17 | Cc1cccc(Nc2cc(Cl)nc(SCC(=O)O)n2)c1C [WY-14643] | No effect | No effect | No effect | –

Row | Molecule | Effect on zebrafish VDR (Zebrafish VDR; [1]) | Effect on Xenopus laevis VDR (Xenopus laevis VDR; [1]) | Effect on sea lamprey VDR (Sea lamprey VDR; [1]) | also measured
18 | C[C@@]12CCC[C@H]1[C@@H]1CC[C@H]3C[C@@H](O)CC[C@]3(C)[C@H]1CC2 [5a-Androstan-3b-ol] | No effect | No effect | No effect | –
19 | CCOP(=O)(OCC)C(=Cc1cc(C(C)(C)C)c(O)c(C(C)(C)C)c1)P(=O)(OCC)OCC [SR12813] | No effect | No effect | No effect | –
20 | C[C@]12CC[C@@H](O)C[C@H]1CC[C@@H]1[C@@H]2C(=O)C[C@]2(C)C(=O)CC[C@@H]12 [5b-Androstan-3a-ol-11,17-one] | No effect | No effect | No effect | –
21 | O=S(=O)(c1ccccc1)N(CC(F)(F)F)c1ccc(C(O)(C(F)(F)F)C(F)(F)F)cc1 [T-0901317] | None of these three VDRs were activated | None of these three VDRs were activated | None of these three VDRs were activated | –
22 | Clc1ccc(-c2nc3sccn3c2/C=N/OCc2ccc(Cl)c(Cl)c2)cc1 [CITCO] | No effect | No effect | No effect | –
23 | CC1=C(/C=C/C(C)=C\C=C\C(C)=C\C(=O)O)C(C)(C)CCC1 [9-cis Retinoic acid] | No effect | No effect | No effect | –
24 | C[C@]12CC[C@@H]3c4ccc(O)cc4CC[C@H]3[C@@H]1CC[C@@H]2O [17b-Estradiol, 17β-estradiol] | No effect | No effect | No effect | Effect on zebrafish VDR (Zebrafish VDR; [2]): None of these three VDRs were activated; Effect on sea lamprey VDR (Sea lamprey VDR; [2]): None of these three VDRs were activated; Effect on Xenopus laevis VDR (Xenopus laevis VDR; [2]): None of these three VDRs were activated
25 | C[C@]12CC[C@@H]3c4ccc(OS(=O)(=O)O)cc4CC[C@H]3[C@@H]1CCC2=O [Estrone 3-sulfate] | No effect | No effect | No effect | –
26 | 17-Hydroxyprogesterone | No effect | No effect | No effect | –
27 | CC(C)CCC[C@@H](C)[C@H]1CC[C@H]2[C@@H]3CC[C@H]4C[C@@H](OS(=O)(=O)O)CC[C@]4(C)[C@H]3CC[C@]12C [5a-cholestan-3b-ol sulfate] | No effect | No effect | No effect | –
28 | C[C@@]12C=CC[C@H]1[C@@H]1CC=C3C[C@@H](O)CC[C@]3(C)[C@H]1CC2 [5,16-Androstadien-3b-ol] | No effect | No effect | No effect | –
29 | CC(CCC(=O)NCC(=O)O)C1CCC2C3C(O)CC4CC(O)CCC4(C)C3CCC12C (stereo not drawn) [Glycochenodeoxycholic acid] | No effect | No effect | No effect | –
30 | C#C[C@]1(O)CC[C@H]2[C@@H]3CCc4cc(O)ccc4[C@H]3CC[C@@]21C [Ethinyl estradiol] | No effect | No effect | No effect | –
31 | C[C@H](CCC(=O)NCCS(=O)(=O)O)[C@H]1CC[C@H]2[C@@H]3[C@H](O)C[C@@H]4C[C@H](O)CC[C@]4(C)[C@H]3CC[C@]12C [Taurochenodeoxycholic acid] | No effect | No effect | No effect | –
32 | Cc1cc(O)c(C)c2c1O[C@](C)(CCC[C@H](C)CCC[C@H](C)CCCC(C)C)CC2 [Beta-tocopherol] | No effect | No effect | No effect | –
33 | C[C@@]12C=CC[C@H]1[C@@H]1CCC3=CC(=O)CC[C@]3(C)[C@H]1CC2 [4,16-Androstadien-3-one] | No effect | No effect | No effect | –
